{"source": "patent US20230391772A1", "about": "“METHODS AND COMPOSITIONS FOR TARGETED PROTEIN DEGRADATION” (Ranok Therapeutics (Hangzhou) Co. Ltd., priority 2020, published 2023)", "key": {"[1]": {"tested_on": "NCI-H358 human non-small cell lung cancer", "assay": "NCI-H358 CCK-8 proliferation assay", "assay_type": "cell-based", "settings": "NCI-H358 cells, 72 hr", "summary_of_the_method": "(§1)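 Three KRAS(G12C) lines are used, MIA PaCa-2 at two mutant copies and the NSCLC lines NCI-H358 and NCI-H23 at one. Each compound is titrated 3-fold from 20 μM to 1.02 nM, and proliferation is scored by CCK-8.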"}, "[2]": {"tested_on": "MIA PaCa-2 human pancreatic carcinoma", "assay": "MIA PaCa-2 CCK-8 proliferation assay", "assay_type": "cell-based", "settings": "Homo sapiens, MIA PaCa-2, 72 h, MIA PaCa-2 cells", "summary_of_the_method": "as §1"}, "[3]": {"tested_on": "NCI-H23 human non-small cell lung cancer", "assay": "NCI-H23 CCK-8 proliferation assay", "assay_type": "cell-based", "settings": "NCI-H23 cells, 72 hr", "description": "The following cancer cell lines were employed: BT-474 human breast carcinoma (ATCC, #HTB-20); MIA PaCa-2 human pancreatic carcinoma [2 copies KRAS(G12C)](ATCC, #CRL-1420); NCI-H23 human non-small cell lung cancer [1 copy KRAS(G12C)](ATCC, #CRL-5800); NCI-H358 human non-small cell lung cancer [1 copy KRAS(G12C)](ATCC, #CRL-5807); LU65A human lung carcinoma (Pharmaron, Beijing, China). Cell lines were cultured essentially according to ATCC and Pharmaron recommendations.\nCancer Cell Line Proliferation (CCK-8) Assays\n3-fold serial dilutions of each test compound were prepared ranging from 20 μM to 1.02 nM.\n% Inhibition=100−(D−B)/(S−B)*100%. • S: Absorbance of cells treated with DMSO • D: Absorbance of compound-treated cells • B: Absorbance of medium with DMSO without cells"}, "[4]": {"target": "T1, HSP90a protein (Homo sapiens, UniProt P07900)", "T1 construct": "purchased BPS Bioscience 50298", "assay": "HSP90α-binding fluorescent polarization (FP) assay, BODIPY-labeled RNK04010 probe", "settings": "FP competition with RNK04010 (BODIPY-labeled), 5 nM, 300 min at 25° C.", "summary_of_the_method": "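N-terminal HSP90a construct; tracer 5 nM final (FITC-geldanamycin or BODIPY-RNK04010, a labeled triazolone binder). Compounds 20 μM–5.2 nM, 2.5-fold steps. 25° C, 120 min (FITC) / 300 min (BODIPY). FP readout.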"}}, "note": "pEC50, pIC50: −log10 of the molar value.", "data": [{"compound": "CC(=O)N1CCN(c2nc(NCCC(=O)N3CCC(CN4CCN(Cc5ccc(-n6c(O)nnc6-c6cc(C(C)C)c(O)cc6O)cc5)CC4)CC3)nc3c2CCN(c2cc(O)cc4ccccc24)C3)CC1", "note": "[Compound 21, 3-((4-(4-acetylpiperazin-1-yl)-7-(3-hydroxynaphthalen-1-yl)-5,6,7,8-tetrahydropyrido[3,4-d]pyrimidin-2-yl)amino)-1-(4-((4-(4-(3-(2,4-dihydroxy-5-isopropylphenyl)-5-hydroxy-4H-1,2,4-triazol-4-yl)benzyl)piperazin-1-yl)methyl)piperidin-1-yl)propan-1-one, trifluoroacetic acid]", "values": [{"measurement": "pEC50", "setting": "[1]", "value": "6.00 to 7.00"}, {"measurement": "pEC50", "setting": "[2]", "value": "6.00 to 7.00"}, {"measurement": "pEC50", "setting": "[3]", "value": "6.00 to 7.00"}, {"measurement": "pIC50", "setting": "[4]", "value": "> 7.00"}]}, {"compound": "C=CC(=O)N1CCN(c2nc(NCCC(=O)N3CCC(CN4CCN(Cc5ccc(-n6c(C(N)=O)nnc6-c6cc(CC)c(O)cc6O)cc5)CC4)CC3)nc3c2CCN(c2cccc4ccccc24)C3)C[C@H]1CC#N", "note": "[Compound 98, (R)-4-(4-((4-((1-(3-((4-(4-acryloyl-3-(cyanomethyl)piperazin-1-yl)-7-(naphthalen-1-yl)-5,6,7,8-tetrahydropyrido[3,4-d]pyrimidin-2-yl)amino)propanoyl)piperidin-4-yl)methyl)piperazin-1-yl)methyl)phenyl)-5-(5-ethyl-2,4-dihydroxyphenyl)-4H-1,2,4-triazole-3-carboxamide, trifluoroacetic acid]", "values": [{"measurement": "pEC50", "setting": "[1]", "value": "6.00 to 7.00"}, {"measurement": "pEC50", "setting": "[3]", "value": "6.00 to 7.00"}, {"measurement": "pIC50", "setting": "[4]", "value": "> 7.00"}]}, {"compound": "C=CC(=O)N1CCN(c2nc(NCCC(=O)N3CCC(CN4CCN(Cc5ccc(-n6c(C(N)=O)nnc6-c6cc(CC)c(O)cc6O)cc5)CC4)CC3)nc3c2CCN(c2cccc4cccc(Cl)c24)C3)C[C@H]1CC#N", "note": "[Compound 99, (R)-4-(4-((4-((1-(3-((4-(4-acryloyl-3-(cyanomethyl)piperazin-1-yl)-7-(8-chloronaphthalen-1-yl)-5,6,7,8-tetrahydropyrido[3,4-d]pyrimidin-2-yl)amino)propanoyl)piperidin-4-yl)methyl)piperazin-1-yl)methyl)phenyl)-5-(5-ethyl-2,4-dihydroxyphenyl)-4H-1,2,4-triazole-3-carboxamide, trifluoroacetic acid]", "values": [{"measurement": "pEC50", "setting": "[1]", "value": "6.00 to 7.00"}, {"measurement": "pEC50", "setting": "[3]", "value": "6.00 to 7.00"}, {"measurement": "pIC50", "setting": "[4]", "value": "6.00 to 7.00"}]}, {"compound": "C=CC(=O)N1CCN(c2nc(NCCC(=O)NCCc3ccc(CN4CCC(Cc5ccc(-n6c(C(=O)NCC(F)(F)F)nnc6-c6cc(C(C)C)c(O)cc6O)cc5)CC4)cc3)nc3c2CCN(c2cccc4ccccc24)C3)C[C@H]1CC#N", "note": "[Compound 108, (R)-4-(4-((1-(4-(2-(3-((4-(4-acryloyl-3-(cyanomethyl)piperazin-1-yl)-7-(naphthalen-1-yl)-5,6,7,8-tetrahydropyrido[3,4-d]pyrimidin-2-yl)amino)propanamido)ethyl)benzyl)piperidin-4-yl)methyl)phenyl)-5-(2,4-dihydroxy-5-isopropylphenyl)-N-(2,2,2-trifluoroethyl)-4H-1,2,4-triazole-3-carboxamide, trifluoroacetic acid, trifluoroacetic acid, trifluoroacetic acid, trifluoroacetic …]", "values": [{"measurement": "pEC50", "setting": "[1]", "value": "6.00 to 7.00"}, {"measurement": "pEC50", "setting": "[3]", "value": "6.00 to 7.00"}, {"measurement": "pIC50", "setting": "[4]", "value": "6.00 to 7.00"}]}, {"compound": "C=CC(=O)N1CCN(c2nc(NCCC(=O)N3CCN(Cc4ccc(CN(C)Cc5ccc(-n6c(C(=O)NCC(F)(F)F)nnc6-c6cc(C(C)C)c(O)cc6O)cc5)cc4)CC3)nc3c2CCN(c2cccc4ccccc24)C3)C[C@H]1CC#N", "note": "[Compound 109, (R)-4-(4-(((4-((4-(3-((4-(4-acryloyl-3-(cyanomethyl)piperazin-1-yl)-7-(naphthalen-1-yl)-5,6,7,8-tetrahydropyrido[3,4-d]pyrimidin-2-yl)amino)propanoyl)piperazin-1-yl)methyl)benzyl)(methyl)amino)methyl)phenyl)-5-(2,4-dihydroxy-5-isopropylphenyl)-N-(2,2,2-trifluoroethyl)-4H-1,2,4-triazole-3-carboxamide, trifluoroacetic acid]", "values": [{"measurement": "pEC50", "setting": "[1]", "value": "6.00 to 7.00"}, {"measurement": "pEC50", "setting": "[3]", "value": "6.00 to 7.00"}, {"measurement": "pIC50", "setting": "[4]", "value": "6.00 to 7.00"}]}, {"compound": "CC(=O)N1CCN(c2nc(NCCC(=O)N3CCN(Cc4ccc(CN(C)Cc5ccc(-n6c(C(=O)NCC(F)(F)F)nnc6-c6cc(C(C)C)c(O)cc6O)cc5)cc4)CC3)nc3c2CCN(c2cc(O)cc4ccccc24)C3)CC1", "note": "[Compound 115, 4-(4-(((4-((4-(3-((4-(4-acetylpiperazin-1-yl)-7-(3-hydroxynaphthalen-1-yl)-5,6,7,8-tetrahydropyrido[3,4-d]pyrimidin-2-yl)amino)propanoyl)piperazin-1-yl)methyl)benzyl)(methyl)amino)methyl)phenyl)-5-(2,4-dihydroxy-5-isopropylphenyl)-N-(2,2,2-trifluoroethyl)-4H-1,2,4-triazole-3-carboxamide, trifluoroacetic acid]", "values": [{"measurement": "pEC50", "setting": "[1]", "value": "6.00 to 7.00"}, {"measurement": "pEC50", "setting": "[3]", "value": "6.00 to 7.00"}, {"measurement": "pIC50", "setting": "[4]", "value": "6.00 to 7.00"}]}, {"compound": "CCc1cc(-c2nnc(C(=O)NCC(F)(F)F)n2-c2ccc(CN(C)Cc3ccc(CC4CCN(C(=O)CCNc5nc6c(c(N7CCN(C(C)=O)[C@H](CC#N)C7)n5)CCN(c5cccc7ccccc57)C6)CC4)cc3)cc2)c(O)cc1O", "note": "[Compound 118, (R)-4-(4-(((4-((1-(3-((4-(4-acetyl-3-(cyanomethyl)piperazin-1-yl)-7-(naphthalen-1-yl)-5,6,7,8-tetrahydropyrido[3,4-d]pyrimidin-2-yl)amino)propanoyl)piperidin-4-yl)methyl)benzyl)(methyl)amino)methyl)phenyl)-5-(5-ethyl-2,4-dihydroxyphenyl)-N-(2,2,2-trifluoroethyl)-4H-1,2,4-triazole-3-carboxamide, trifluoroacetic acid]", "values": [{"measurement": "pEC50", "setting": "[1]", "value": "6.00 to 7.00"}, {"measurement": "pEC50", "setting": "[3]", "value": "6.00 to 7.00"}, {"measurement": "pIC50", "setting": "[4]", "value": "< 6.00"}]}, {"compound": "CCC(=O)N1CCN(c2nc(NCCC(=O)N3CCC(CN4CCN(Cc5ccc(-n6c(C(=O)NC(C)C(F)(F)F)nnc6-c6cc(CC)c(O)cc6O)cc5)CC4)CC3)nc3c2CCN(c2cc(O)cc4ccccc24)C3)CC1", "note": "(stereo not shown) [Compound 119, 5-(5-ethyl-2,4-dihydroxyphenyl)-4-(4-((4-((1-(3-((7-(3-hydroxynaphthalen-1-yl)-4-(4-propionylpiperazin-1-yl)-5,6,7,8-tetrahydropyrido[3,4-d]pyrimidin-2-yl)amino)propanoyl)piperidin-4-yl)methyl)piperazin-1-yl)methyl)phenyl)-N-(1,1,1-trifluoropropan-2-yl)-4H-1,2,4-triazole-3-carboxamide, trifluoroacetic acid]", "values": [{"measurement": "pEC50", "setting": "[1]", "value": "6.00 to 7.00"}, {"measurement": "pEC50", "setting": "[3]", "value": "6.00 to 7.00"}, {"measurement": "pIC50", "setting": "[4]", "value": "6.00 to 7.00"}]}, {"compound": "CCC(=O)N1CCN(c2nc(N3CCC(CN4CCN(Cc5ccc(-n6c(O)nnc6-c6cc(C(C)C)c(O)cc6O)cc5)CC4)CC3)nc3c2CCN(c2cccc4cccc(Cl)c24)C3)C[C@@H]1CC#N", "note": "[Compound 128, (S)-2-(4-(7-(8-chloronaphthalen-1-yl)-2-(4-((4-(4-(3-(2,4-dihydroxy-5-isopropylphenyl)-5-hydroxy-4H-1,2,4-triazol-4-yl)benzyl)piperazin-1-yl)methyl)piperidin-1-yl)-5,6,7,8-tetrahydropyrido[3,4-d]pyrimidin-4-yl)-1-propionylpiperazin-2-yl)acetonitrile]", "values": [{"measurement": "pEC50", "setting": "[1]", "value": "6.00 to 7.00"}, {"measurement": "pEC50", "setting": "[3]", "value": "6.00 to 7.00"}, {"measurement": "pIC50", "setting": "[4]", "value": "6.00 to 7.00"}]}, {"compound": "CCc1cc(-c2nnc(O)n2-c2ccc(CN3CCN(CC4CCN(c5nc6c(c(N7CCN(C(=O)C(F)(F)F)[C@@H](CC#N)C7)n5)CCN(c5cccc7cccc(Cl)c57)C6)CC4)CC3)cc2)c(O)cc1O", "note": "[Compound 131, (S)-2-(4-(7-(8-chloronaphthalen-1-yl)-2-(4-((4-(4-(3-(5-ethyl-2,4-dihydroxyphenyl)-5-hydroxy-4H-1,2,4-triazol-4-yl)benzyl)piperazin-1-yl)methyl)piperidin-1-yl)-5,6,7,8-tetrahydropyrido[3,4-d]pyrimidin-4-yl)-1-(2,2,2-trifluoroacetyl)piperazin-2-yl)acetonitrile]", "values": [{"measurement": "pEC50", "setting": "[1]", "value": "< 6.00"}, {"measurement": "pEC50", "setting": "[3]", "value": "6.00 to 7.00"}, {"measurement": "pIC50", "setting": "[4]", "value": "< 6.00"}]}, {"compound": "C=C(F)C(=O)N1CCN(c2nc(N3CCC(N4CCN(Cc5ccc(-n6c(O)nnc6-c6cc(C(C)C)c(O)cc6O)cc5)CC4)CC3)nc3c2CCN(c2cccc4cccc(Cl)c24)C3)C[C@@H]1CC#N", "note": "[Compound 132, (S)-2-(4-(7-(8-chloronaphthalen-1-yl)-2-(4-(4-(4-(3-(2,4-dihydroxy-5-isopropylphenyl)-5-hydroxy-4H-1,2,4-triazol-4-yl)benzyl)piperazin-1-yl)piperidin-1-yl)-5,6,7,8-tetrahydropyrido[3,4-d]pyrimidin-4-yl)-1-(2-fluoroacryloyl)piperazin-2-yl)acetonitrile]", "values": [{"measurement": "pEC50", "setting": "[1]", "value": "6.00 to 7.00"}, {"measurement": "pEC50", "setting": "[3]", "value": "6.00 to 7.00"}, {"measurement": "pIC50", "setting": "[4]", "value": "6.00 to 7.00"}]}]}
